From patent US20220322667A1, “MICROBIOCIDAL USE” (DSM IP ASSETS B.V., priority 2019, published 2022)

Assays:
Assay in all cases: Antimicrobial challenge test in analogy to NF EN ISO 11930
Type in all cases: cell-based
[1] = tested on: Candida albicans
Method: (§1) The antimicrobial efficacy was assessed in analogy to the regulatory challenge test method (NF EN IS011930). Thus, mixtures of the respective active(s) with physiological serum with 0.85 wt.-% NaCl in the concentrations as outlined below are prepared under sterile conditions. Controls were also prepared under sterile conditions. The control as well as the mixtures were then deposed in 96-deep well plates (1.6 ml/well). The wells were contaminated with the respective bacterial or the fungal strains at 2.5*10^5 to 5.6*10^5 cfu/ml for the bacteria and 1*10^4 to 2.5*10^4 cfu/ml for the fungi to obtain the initial contamination as outlined below. After the contamination, each well was thoroughly mixed to ensure a homogeneous distribution of microbes. Then each plate was incubated at 22° C. for 24 h. The counting of the (remaining) population is carried out 24 h after contamination. Then, the average log reduction is calculated [−log 10{(value inoculum)/(value sample)}] which is represented in tables 1-5.

[2] = tested on: Aspergillus brasiliensis; conditions: 0.3 wt.-% DBO, 24 h at 22° C.
Method: as §1, with “The wells were contaminated with the respective bacterial or the fungal strains at 2.5*10^5 to 5.6*10^5 cfu/ml for the bacteria and 1*10^4 to 2.5*10^4 cfu/ml for the fungi to obtain the initial contamination as outlined below.” left out

[3] = tested on: Staphylococcus aureus; conditions: 0.3 wt.-% HAP, 24 h
Method: as §1

[4] = tested on: Escherichia coli; conditions: 0.2 wt.-% Sodium Benzoate, 24 h
Method: as §1

Structure (SMILES): c1ccc2oc(-c3ccc(-c4nc5ccccc5o4)cc3)nc2c1 [DBO, 1,4-di(benzoxazol-2′-yl)benzene]
- Log reduction ([1]; 0.3 wt.-% DBO, 24 h at 22° C.): −0.51
- 24 h colony count ([1]; 0.3 wt.-% DBO, 24 h at 22° C., inoculum 32000 cfu/ml): 10000 cfu/ml
- Log reduction [2]: −2.05
- 24 h colony count ([2]; inoculum 45000 cfu/ml): 400 cfu/ml

Structure (SMILES): CC(=O)c1ccc(O)cc1 [HAP, 1-(4-hydroxyphenyl)-ethanone]
- Log reduction [3]: −1.16
- Staphylococcus aureus colony count ([3]; 550000 cfu/ml at 0 h): 70000 cfu/ml

Structure (SMILES): OCCCO [PDO, 1,3-propanediol]
- Log reduction ([1]; 1.0 wt.-% PDO, 24 h): −0.24
- Candida albicans colony count ([1]; 1.0 wt.-% PDO, 24 h, 70000 cfu/ml at 0 h): 40000 cfu/ml

Structure (SMILES): O=C([O-])c1ccccc1.[Na+] [Sodium Benzoate, sodium benzoate]
- Log reduction [4]: +0.40
- Escherichia coli colony count ([4]; 400000 cfu/ml at 0 h): 1000000 cfu/ml
